# Data: patent publication US12091410B2, “Heterocyclic compound” (Takeda Pharmaceutical Company Limited, priority 2018, dated 2024)
# Target: T1, human orexin type 2 receptor (Homo sapiens, UniProt O43614)
# T1 construct: expressed in transfected cells
# T1 sequence (O43614 1-444): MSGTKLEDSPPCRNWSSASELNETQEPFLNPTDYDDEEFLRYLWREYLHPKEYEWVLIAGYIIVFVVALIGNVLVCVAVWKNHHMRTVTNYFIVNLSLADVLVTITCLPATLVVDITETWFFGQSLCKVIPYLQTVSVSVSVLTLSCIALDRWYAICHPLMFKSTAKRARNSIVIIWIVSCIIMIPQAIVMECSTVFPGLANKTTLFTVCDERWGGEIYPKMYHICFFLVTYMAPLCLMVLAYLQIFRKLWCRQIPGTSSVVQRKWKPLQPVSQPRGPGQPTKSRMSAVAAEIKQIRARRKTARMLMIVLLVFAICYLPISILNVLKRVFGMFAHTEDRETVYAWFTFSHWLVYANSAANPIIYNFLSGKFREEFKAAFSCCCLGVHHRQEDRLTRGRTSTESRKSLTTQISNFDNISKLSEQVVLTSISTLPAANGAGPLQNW
# Test: Measurement of orexin type 2 receptor agonist activity (calcium fluorescence, Fluo-4 AM, CHO cells forcibly expressing human OX2 receptor)
# Type: cell-based
# Conditions: test compound 3 μM, DMSO = 0%, orexin A (human) 10 nM = 100%
# Text: To obtain a cell clone stably expressing human orexin type 2 receptor, human orexin type 2 receptor cDNA was inserted into pcDNA3.1(+) plasmid vector (Invitrogen), and a plasmid DNA for expression of human orexin type 2 receptor (pcDNA3.1(+)/hOX2R) was cloned. The plasmid DNA was introduced into CHO-dhfr cell by an electroporation method, and human orexin type 2 receptor expressing clone cells were obtained by limiting dilution method by using G418 drug resistance as a selection marker.
# CHO cells forcibly expressing human OX2 receptor were seeded in each well of 384 well black transparent bottom plate (BD Falcon) at 7,500 cells/well, and cultured for one day in a 5% CO2 incubator at 37° C. After removal of the medium in the cell plate, assay buffer A containing a calcium indicator (HBSS (Thermo Fisher Scientific), 20 mM HEPES (Thermo Fisher Scientific), 0.1% BSA (Sigma-Aldrich), 2.5 μg/mL Fluo-4 AM (DOJINDO Chemical), 0.08% Pluronic F127 (DOJINDO Chemical), 1.25 mM probenecid (DOJINDO Chemical)) was added at 30 μL/well. The plate was stood for 30 min in a 5% CO2 incubator at 37° C., and further stood at room temperature for 30 min. A test compound prepared by diluting with assay buffer B (HBSS, 20 mM HEPES, 0.1% BSA) was added at 10 μL/well, and the fluorescence value was measured by FDSSpCELL (Hamamatsu Photonics K. K.) every one sec for 1 min, and thereafter every two sec for 1 min 40 sec. The activity (%) of the test compound was calculated assuming that variation in the fluorescence value when DMSO was added instead of the test compound was 0%, and variation in the fluorescence value when orexin A (human) (PEPTIDE INSTITUTE, INC.) was added at the final concentration of 10 nM was 100%.
row,Compound,"OX2R agonist activity (3 μM, %) [%]"
1,"CCc1cc2n(n1)C(CO[C@H]1CC[C@@H](c3ccccc3)CC1)C(NS(C)(=O)=O)CC2 (mixture of isomers) [Example 2, rac-N-[(6S,7R)-2-ethyl-7-({[(1s,4S)-4-phenylcyclohexyl]oxy}methyl)-4,5,6,7-tetrahydropyrazolo[1,5-a]pyridin-6-yl]methanesulfonamide]",107
2,"Cc1cc2n(n1)[C@@H](COC1CCN(c3ncccn3)CC1)[C@@H](NS(C)(=O)=O)CC2 (racemic) [Example 3, rac-N-[(6S,7R)-2-methyl-7-({[1-(pyrimidin-2-yl)piperidin-4-yl]oxy}methyl)-4,5,6,7-tetrahydropyrazolo[1,5-a]pyridin-6-yl]methanesulfonamide]",82
3,"Cc1cc2n(n1)[C@@H](COC1CCN(c3ncc(F)cn3)CC1)[C@@H](NS(C)(=O)=O)CC2 (racemic) [Example 4, rac-N-[(6S,7R)-7-({[1-(5-fluoropyrimidin-2-yl)piperidin-4-yl]oxy}methyl)-2-methyl-4,5,6,7-tetrahydropyrazolo[1,5-a]pyridin-6-yl]methanesulfonamide]",98
4,"Cc1nc2n(n1)C(CO[C@H]1CC[C@@H](c3ccccc3)CC1)C(NS(C)(=O)=O)CC2 (mixture of isomers) [Example 5, rac-N-[(5R,6S)-2-methyl-5-({[(1s,4S)-4-phenylcyclohexyl]oxy}methyl)-5,6,7,8-tetrahydro[1,2,4]triazolo[1,5-a]pyridin-6-yl]methanesulfonamide]",99
5,"CS(=O)(=O)NC1CCc2ncnn2C1CO[C@H]1CC[C@@H](c2ccccc2)CC1 (mixture of isomers) [Example 6, rac-N-[(5R,6S)-5-({[(1s,4S)-4-phenylcyclohexyl]oxy}methyl)-5,6,7,8-tetrahydro[1,2,4]triazolo[1,5-a]pyridin-6-yl]methanesulfonamide]",85
6,"CS(=O)(=O)N[C@H]1CCc2ccnn2[C@H]1COC1CCN(c2ncc(F)cn2)CC1 (racemic) [Example 9, rac-N-[(6S,7R)-7-({[1-(5-fluoropyrimidin-2-yl)piperidin-4-yl]oxy}methyl)-4,5,6,7-tetrahydropyrazolo[1,5-a]pyridin-6-yl]methanesulfonamide]",85
7,"Cc1nnn2c1CC[C@H](NS(C)(=O)=O)[C@@H]2COC1CCN(c2ncc(F)cn2)CC1 (racemic) [Example 10, rac-N-[(6S,7R)-7-({[1-(5-fluoropyrimidin-2-yl)piperidin-4-yl]oxy}methyl)-3-methyl-4,5,6,7-tetrahydro[1,2,3]triazolo[1,5-a]pyridin-6-yl]methanesulfonamide]",69
8,"Cc1nn2c(c1C)CC[C@H](NS(C)(=O)=O)[C@@H]2COC1CCN(c2ncc(F)cn2)CC1 (racemic) [Example 12, rac-N-[(6S,7R)-7-({[1-(5-fluoropyrimidin-2-yl)piperidin-4-yl]oxy}methyl)-2,3-dimethyl-4,5,6,7-tetrahydropyrazolo[1,5-a]pyridin-6-yl]methanesulfonamide]",102
9,"Cc1nn2c(c1Cl)CC[C@H](NS(C)(=O)=O)[C@@H]2COC1CCN(c2ncc(F)cn2)CC1 (racemic) [Example 15, rac-N-[(6S,7R)-3-chloro-7-({[1-(5-fluoropyrimidin-2-yl)piperidin-4-yl]oxy}methyl)-2-methyl-4,5,6,7-tetrahydropyrazolo[1,5-a]pyridin-6-yl]methanesulfonamide]",91
10,"CCc1cc2n(n1)[C@@H](COC1CCN(c3ncccn3)CC1)[C@@H](NS(C)(=O)=O)CC2 (racemic) [Example 28, rac-N-[(6S,7R)-2-ethyl-7-({[1-(pyrimidin-2-yl)piperidin-4-yl]oxy}methyl)-4,5,6,7-tetrahydropyrazolo[1,5-a]pyridin-6-yl]methanesulfonamide]",102
11,"CC(C)c1cc2n(n1)[C@@H](COC1CCN(c3ccccc3F)CC1)[C@@H](NS(C)(=O)=O)CC2 (racemic) [Example 29, rac-N-[(6S,7R)-7-({[1-(2-fluorophenyl)piperidin-4-yl]oxy}methyl)-2-(propan-2-yl)-4,5,6,7-tetrahydropyrazolo[1,5-a]pyridin-6-yl]methanesulfonamide]",80
12,"CCc1nn2c(c1Cl)CC[C@H](NS(C)(=O)=O)[C@@H]2COC1CCN(c2ncccn2)CC1 (racemic) [Example 32, rac-N-[(6S,7R)-3-chloro-2-ethyl-7-({[1-(pyrimidin-2-yl)piperidin-4-yl]oxy}methyl)-4,5,6,7-tetrahydropyrazolo[1,5-a]pyridin-6-yl]methanesulfonamide]",92
13,"CCc1cc2n(n1)[C@@H](COC1CCN(c3ncc(F)c(OC)n3)CC1)[C@@H](NS(C)(=O)=O)CC2 (racemic) [Example 40, rac-N-[(6S,7R)-2-ethyl-7-({[1-(5-fluoro-4-methoxypyrimidin-2-yl)piperidin-4-yl]oxy}methyl)-4,5,6,7-tetrahydropyrazolo[1,5-a]pyridin-6-yl]methanesulfonamide]",96
14,"CCc1cc2n(n1)[C@@H](COC1CCN(c3ncc(F)c(C)n3)CC1)[C@@H](NS(C)(=O)=O)CC2 (racemic) [Example 41, rac-N-[(6S,7R)-2-ethyl-7-({[1-(5-fluoro-4-methylpyrimidin-2-yl)piperidin-4-yl]oxy}methyl)-4,5,6,7-tetrahydropyrazolo[1,5-a]pyridin-6-yl]methanesulfonamide]",80

# Other lines, results leading:
row,"OX2R agonist activity (3 μM, %) [%]",Compound
1,104,"Cc1cc2n(n1)C(CO[C@H]1CC[C@@H](c3ccccc3)CC1)C(NS(C)(=O)=O)CC2 (mixture of isomers) [Example 1, rac-N-[(6S,7R)-2-methyl-7-({[(1s,4S)-4-phenylcyclohexyl]oxy}methyl)-4,5,6,7-tetrahydropyrazolo[1,5-a]pyridin-6-yl]methanesulfonamide]"
2,77,"Cc1cc2n(n1)[C@@H](Cc1cccc(-c3ccccc3)c1)[C@@H](NS(C)(=O)=O)CC2 (racemic) [Example 7, rac-N-{(6S,7S)-7-[([1,1′-biphenyl]-3-yl)methyl]-2-methyl-4,5,6,7-tetrahydropyrazolo[1,5-a]pyridin-6-yl}methanesulfonamide]"
3,92,"CCc1cc2n(n1)[C@@H](Cc1cccc(-c3ccccc3)c1)[C@@H](NS(C)(=O)=O)CC2 (racemic) [Example 8, rac-N-{(6S,7S)-7-[([1,1′-biphenyl]-3-yl)methyl]-2-ethyl-4,5,6,7-tetrahydropyrazolo[1,5-a]pyridin-6-yl}methanesulfonamide]"
4,84,"CC(C)n1cc2c(n1)[C@@H](Cc1cccc(-c3ccccc3)c1)[C@@H](NS(C)(=O)=O)CC2 (racemic) [Example 16, rac-N-[(6S,7S)-7-[([1,1′-biphenyl]-3-yl)methyl]-2-(propan-2-yl)-4,5,6,7-tetrahydro-2H-indazol-6-yl]methanesulfonamide]"
5,62,"Cc1nc2c(s1)CC[C@H](NS(C)(=O)=O)[C@@H]2Cc1cccc(-c2ccccc2)c1 (racemic) [Example 17, rac-N-{(4S,5S)-4-[([1,1′-biphenyl]-3-yl)methyl]-2-methyl-4,5,6,7-tetrahydro-1,3-benzothiazol-5-yl}methanesulfonamide]"
6,63,"CS(=O)(=O)N[C@H]1CCc2cccnc2[C@H]1Cc1cccc(-c2ccccc2)c1 (racemic) [Example 22, rac-N-{(7S,8S)-8-[([1,1′-biphenyl]-3-yl)methyl]-5,6,7,8-tetrahydroquinolin-7-yl}methanesulfonamide]"
7,109,"CC(C)c1cc2n(n1)[C@@H](Cc1cccc(-c3ccccc3)c1)[C@@H](NS(C)(=O)=O)CC2 (racemic) [Example 23, rac-N-[(6S,7S)-7-[([1,1′-biphenyl]-3-yl)methyl]-2-(propan-2-yl)-4,5,6,7-tetrahydropyrazolo[1,5-a]pyridin-6-yl]methanesulfonamide]"
8,105,"CC(O)c1cc2n(n1)C(Cc1cccc(-c3ccccc3)c1)C(NS(C)(=O)=O)CC2 (racemic) [Example 36, N-[(6SR,7SR)-7-[([1,1′-biphenyl]-3-yl)methyl]-2-(1-hydroxyethyl)-4,5,6,7-tetrahydropyrazolo[1,5-a]pyridin-6-yl]methanesulfonamide]"
